Data taken from ChEMBL document CHEMBL5346916, “Discovery of acridine-based LSD1 inhibitors as immune activators targeting LSD1 in gastric cancer” (Eur J Med Chem, 2023).
pIC50: −log10 of the molar value. The source made the active and inactive calls. The rule behind the calls is not given here.

Experiments:
[1] = biological target: T1, Lysine-specific histone demethylase 1A (Homo sapiens, UniProt O60341); assay: Inhibition of recombinant LSD1 (unknown origin) expressed in Escherichia coli BL21(DE3) strain using H3K4me2 peptide as substrate at 10 uM incubated for 30 mins by fluorescence based analysis relative to control
[2] = biological target: T1, Lysine-specific histone demethylase 1A; assay: Inhibition of recombinant LSD1 (unknown origin) expressed in Escherichia coli BL21(DE3) strain using H3K4me2 peptide as substrate incubated for 30 mins by fluorescence based analysis
[3] = Cytotoxicity against […] cells at 2 uM incubated for 5 days by CCK-8 method relative to control; assay type: functional; details: time 5 day
BGC-823 [4] = assay: Downregulation of PD-L1 level in human BGC-823 cells incubated for 5 days by Western blot analysis; assay type: functional, cell-based; details: dose 1-4 µM, time 5.0 day
BGC-823 [5] = assay: Downregulation of PD-L1 mRNA level in human BGC-823 cells at 1 to 4 uM incubated for 5 days by Q-RT-PCR analysis; assay type: functional, cell-based; details: dose 1-4 µM, time 5.0 day
BGC-823 [6] = assay: Cytotoxicity against human BGC-823 cells co-cultured with T cells assessed as increase in 4-1BB level at 2 uM measured after 5 days by Q-RT-PCR method; assay type: functional, cell-based; details: time 5.0 day
[7] = biological target: T1, Lysine-specific histone demethylase 1A; assay: Inhibition of LSD1 in human BGC-823 cells assessed as suppression of H3K4me2 methylation measured after 5 days by Western blot analysis; assay type: cell-based; details: dose 1-4 µM, time 5.0 day
[8] = biological target: T1, Lysine-specific histone demethylase 1A; assay: Inhibition of LSD1 (unknown origin) human BGC-823 cells assessed as suppression of H3K4me1 methylation measured after 5 days by Western blot analysis; assay type: cell-based; details: dose 1-4 µM, time 5.0 day
MFC [9] = assay: Downregulation of PD-L1 mRNA level in […] cells at 1 to 4 uM incubated for 5 days by Q-RT-PCR analysis; assay type: functional, cell-based; details: dose 1-4 µM, time 5.0 day
BGC-823 [10] = assay: Antimigratory activity against human BGC-823 cells assessed as reduction in cell migration at 1 to 4 uM measured after 24 to 48 hrs by wound healing assay; assay type: functional, cell-based; details: dose 1-4 µM, time 24-48 hrs
MFC [11] = assay: Antitumor activity against mouse MFC cells xenografted in 615 mouse model assessed as increase in IFN-gamma m-RNA level at 10 to 40 mg/kg, IG administered daily and measured every other day for 14 days; assay type: functional, organism-based; details: dose 10-40 mg/kg, time 14.0 day
BGC-823 [12] = assay: Inhibition of stemness in human BGC-823 cells assessed as inhibition of SOX2 expression at 1 to 4 uM measured after 5 days by Western blot analysis; assay type: functional, cell-based; details: dose 1-4 µM, time 5.0 day
BGC-823 [13] = assay: Cytotoxicity against human BGC-823 cells co-cultured with T cells assessed as increase in CCR7 level at 2 uM measured after 5 days by Q-RT-PCR method; assay type: functional, cell-based; details: time 5.0 day
BGC-823 [14] = assay: Cytotoxicity against human BGC-823 cells co-cultured with T cells assessed as increase in IFN-gamma level at 2 uM measured after 5 days by Q-RT-PCR method; assay type: functional, cell-based; details: time 5.0 day
[15] = Toxicity in 615 mouse assessed as at 10 to 40 mg/kg, IG kidney injury administered daily and measured every other day for 14 days; assay type: organism-based; details: in vivo, po, 336 h, dose 10-40 mg/kg, time 14 day
BGC-823 [16] = assay: Cytotoxicity against human BGC-823 cells co-cultured with T cells assessed as reduction in cell viability measured after 5 days by CCK8 method; assay type: functional, cell-based; details: dose 1-4 µM, time 5.0 day
BGC-823 [17] = assay: Inhibition of stemness in human BGC-823 cells assessed as inhibition of CD44 expression at 1 to 4 uM measured after 5 days by Western blot analysis; assay type: functional, cell-based; details: dose 1-4 µM, time 5.0 day
MFC [18] = assay: Antitumor activity against mouse MFC cells xenografted in 615 mouse model assessed as increase in TNF-alpha m-RNA level at 10 to 40 mg/kg, IG administered daily and measured every other day for 14 days; assay type: functional, organism-based; details: dose 10-40 mg/kg, time 14.0 day
BGC-823 [19] = assay: Cytotoxicity against human BGC-823 cells co-cultured with T cells assessed as increase in IL-2 level at 2 uM measured after 5 days by Q-RT-PCR method; assay type: functional, cell-based; details: time 5.0 day
BGC-823 [20] = assay: Inhibition of stemness in human BGC-823 cells assessed as inhibition of OCT4 expression at 1 to 4 uM measured after 5 days by Western blot analysis; assay type: functional, cell-based; details: dose 1-4 µM, time 5.0 day
[21] = Toxicity in 615 mouse assessed as change in body weight at 10 to 40 mg/kg, IG administered daily and measured every other day for 14 days; assay type: organism-based; details: in vivo, po, 336 h, dose 10-40 mg/kg, time 14 day
MFC [22] = assay: Antitumor activity against mouse MFC cells xenografted in 615 mouse model assessed as increase in IL-2 m-RNA level at 10 to 40 mg/kg, IG administered daily and measured every other day for 14 days; assay type: functional, organism-based; details: dose 10-40 mg/kg, time 14.0 day
BGC-823 [23] = assay: Cytotoxicity against human BGC-823 cells co-cultured with T cells assessed as increase in TNF-alpha level at 2 uM measured after 5 days by Q-RT-PCR method; assay type: functional, cell-based; details: time 5.0 day
[24] = Toxicity in 615 mouse assessed as at 10 to 40 mg/kg, IG liver injury administered daily and measured every other day for 14 days; assay type: organism-based; details: in vivo, po, 336 h, dose 10-40 mg/kg, time 14 day
MFC [25] = assay: Antitumor activity against mouse MFC cells xenografted in 615 mouse model assessed as reduction in tumor weight at 10 to 40 mg/kg, IG administered daily and measured every other day for 14 days […]; assay type: functional, organism-based; details: dose 10-40 mg/kg, time 14.0 day
MFC [26] = assay: Antitumor activity against mouse MFC cells xenografted in 615 mouse model assessed as decrease in PD-L1 level administered as IG daily and measured every other day for 14 days by Western blot analysis; assay type: functional; details: dose 10-40 mg/kg, time 14.0 day
[27] = biological target: T1, Lysine-specific histone demethylase 1A; assay: Binding affinity to recombinant LSD1 (unknown origin) assessed as thermal stability at 4 uM by thermal shift assay
MFC [28] = assay: Antitumor activity against mouse MFC cells xenografted in 615 mouse model assessed as suppression in tumor growth administered as IG daily and measured every other day for 14 days by caliper method; assay type: functional; details: dose 10-40 mg/kg, time 14.0 day
[29] = biological target: Programmed cell death protein 1/Programmed cell death 1 ligand 1 (Homo sapiens) (UniProt Q15116+Q9NZQ7); assay: Inhibition of recombinant PD-1 binding to PD-L1 in human BGC-823 cells measured after 5 days by DAPI staining based confocal microscopy analysis; assay type: cell-based; details: dose 1-4 µM, time 5.0 day
MFC [30] = assay: Downregulation of PD-L1 level in […] cells incubated for 5 days by Western blot analysis; assay type: functional, cell-based; details: dose 1-4 µM, time 5.0 day

## Nc1ccc(Sc2c3ccccc3nc3ccccc23)cc1
[1]
  inhibition: 100%
[2]
  pIC50: 6.01

## Cc1cnc(NS(=O)(=O)c2ccc(Nc3c4ccccc4nc4ccccc34)cc2)o1
[1]
  inhibition: 19.2%

## CC(C)c1ccc2nc3ccccc3c(Nc3ccc(N4CCN(C)CC4)cc3)c2c1
[1]
  inhibition: 100%
[2]
  pIC50: 6.64

## c1ccc(CN2CCN(c3ccc(Nc4c5ccccc5nc5ccccc45)cc3)CC2)cc1
[1]
  inhibition: 97%
[2]
  pIC50: 5.62

## CSc1ccc(Nc2c3ccccc3nc3ccccc23)cc1
[1]
  inhibition: 79.7%
[2]
  pIC50: 6.13

## Fc1ccc(C(c2ccc(F)cc2)N2CCN(c3ccc(Nc4c5ccccc5nc5ccccc45)cc3)CC2)cc1
[1]
  inhibition: 68.1%
[2]
  pIC50: 6.15

## COc1cc(NS(C)(=O)=O)ccc1Nc1c2ccccc2nc2ccccc12 [AMSACRINE]
[1]
  inhibition: 100%
[2]
  pIC50: 6.06

## c1ccc(Nc2c3ccccc3nc3ccccc23)cc1
[1]
  inhibition: 99.2%
[2]
  pIC50: 5.98

## CN1CCN(c2ccc(Nc3c4ccccc4nc4c(N(C)C)cccc34)cc2)CC1
[1]
  inhibition: 97%
[2]
  pIC50: 5.22

## CC(=O)Nc1ccc(Nc2c3ccccc3nc3ccccc23)cc1
[1]
  inhibition: 67.8%
[2]
  pIC50: 5.45

## CN1CCN(Cc2ccc(Nc3c4ccccc4nc4ccccc34)cc2)CC1
[1]
  inhibition: 45.6%

## c1ccc2c(NCCN3CCOCC3)c3ccccc3nc2c1
[1]
  inhibition: 22.4%

## c1ccc2c(Nc3ccc(N4CCNCC4)cc3)c3ccccc3nc2c1
[1]
  inhibition: 100%
[2]
  pIC50: 6.66

## c1ccc2c(Nc3ccc(N4CCOCC4)cc3)c3ccccc3nc2c1
[1]
  inhibition: 100%
[2]
  pIC50: 6.35

## Cc1ccc(Nc2c3ccccc3nc3ccccc23)cc1
[1]
  inhibition: 57.9%
[2]
  pIC50: 5.44

## N#Cc1ccc(Nc2c3ccccc3nc3ccccc23)cc1
[1]
  inhibition: 29.8%

## CN1CCN(c2ccc(Nc3c4ccccc4nc4ccccc34)cc2)CC1
[1]
  inhibition: 100%
[3]
  Activity: <10%
BGC-823 [4]
  Activity: Dose-Dependent Effect
BGC-823 [5]
  Activity: Active
BGC-823 [6]
  Activity: Active
[7]
  inhibition: Dose-Dependent Effect
[8]
  inhibition: Dose-Dependent Effect
MFC [9]
  Activity: Active
BGC-823 [10]
  Activity: Active
MFC [11]
  Activity: Active
BGC-823 [12]
  inhibition: Active
BGC-823 [13]
  Activity: Active
BGC-823 [14]
  Activity: Active
[15]
  Activity: Non-Toxic
BGC-823 [16]
  Activity: Dose-Dependent Effect
BGC-823 [17]
  inhibition: Active
MFC [18]
  Activity: Active
[2]
  pIC50: 7.14
BGC-823 [19]
  Activity: Active
BGC-823 [20]
  inhibition: Active
[21]
  Activity: Toxic
MFC [22]
  Activity: Active
BGC-823 [23]
  Activity: Active
[24]
  Activity: Non-Toxic
MFC [25]
  Activity: Active
MFC [26]
  Activity: Dose-Dependent Effect
[27]
  Activity: Active
MFC [28]
  Activity: Dose-Dependent Effect
[29]
  inhibition: Dose-Dependent Effect
MFC [30]
  Activity: Dose-Dependent Effect

## CC(C)c1ccc(Nc2c3ccccc3nc3ccccc23)cc1
[1]
  inhibition: 43.4%

## c1ccc2c(Nc3ccc4c(c3)OCCO4)c3ccccc3nc2c1
[1]
  inhibition: 97.7%
[2]
  pIC50: 6.07

## COc1ccc2nc3ccccc3c(Nc3ccc(N4CCN(C)CC4)cc3)c2c1
[1]
  inhibition: 100%
[2]
  pIC50: 6.64

## CN1CCN(c2ccc(Nc3c4ccccc4nc4ccc(Cl)cc34)cc2)CC1
[1]
  inhibition: 100%
[2]
  pIC50: 6.55

## c1ccc2c(Nc3ccc(N4CCCCC4)cc3)c3ccccc3nc2c1
[1]
  inhibition: 25%

## c1ccc2c(NN3CCCCC3)c3ccccc3nc2c1
[1]
  inhibition: 95.3%
[2]
  pIC50: 5.78

## O=C1COCCN1c1ccc(Nc2c3ccccc3nc3ccccc23)cc1
[1]
  inhibition: 41%

## CCn1c2ccccc2c2ccc(Nc3c4ccccc4nc4ccccc34)cc21
[1]
  inhibition: 97.2%
[2]
  pIC50: 6.15

## COc1ccc(Nc2c3ccccc3nc3ccccc23)cc1
[1]
  inhibition: 100%
[2]
  pIC50: 5.94

## COc1ccc2c(Nc3ccc(N4CCN(C)CC4)cc3)c3ccccc3nc2c1
[1]
  inhibition: 100%
[2]
  pIC50: 6.85

## Nc1ccc(Nc2c3ccccc3nc3ccccc23)cc1
[1]
  inhibition: 100%
[2]
  pIC50: 6.22

## CS(=O)(=O)Nc1ccc(Nc2c3ccccc3nc3ccccc23)cc1
[1]
  inhibition: 100%
[2]
  pIC50: 6.18

## Cc1ccc2nc3c(C)c(C)ccc3c(Nc3ccc(N4CCN(C)CC4)cc3)c2c1
[1]
  inhibition: 100%
[2]
  pIC50: 7.00

## COc1cccc2c(Nc3ccc(N4CCN(C)CC4)cc3)c3ccccc3nc12
[1]
  inhibition: 100%
[2]
  pIC50: 6.89

## Cc1ccc2cc(Nc3c4ccccc4nc4ccccc34)ccc2n1
[1]
  inhibition: 68.6%
[2]
  pIC50: 5.41

## Nc1ccc(Oc2c3ccccc3nc3ccccc23)cc1
[1]
  inhibition: 100%
[2]
  pIC50: 5.76

## NS(=O)(=O)c1ccc(Nc2c3ccccc3nc3ccccc23)cc1
[1]
  inhibition: 4.01%

## Nc1ccccc1Nc1c2ccccc2nc2ccccc12
[1]
  inhibition: 100%
[2]
  pIC50: 5.08

## Cc1cc2nc3ccccc3c(Nc3ccc(N4CCN(C)CC4)cc3)c2cc1C
[1]
  inhibition: 100%
[2]
  pIC50: 7.07

## CCN1CCN(c2ccc(Nc3c4ccccc4nc4ccccc34)cc2)CC1
[1]
  inhibition: 100%
[2]
  pIC50: 6.96
